According to US20240108744A1, “AURISTATIN DERIVATIVES AND CONJUGATES THEREOF” (priority 2022, published 2024):
Where two headings read alike, the source gives them in different places. Square brackets hold non-standard residues; d marks the D form. Peptide text beside a SMILES is read from it. * marks the point of attachment. Dolaproine = CO[C@@H]([C@@H]1CCCN1)[C@@H](C)C(=O)O; Phe(βS-OH) = N[C@H](C(=O)O)[C@@H](O)c1ccccc1; Dil = CC[C@H](C)[C@H](NC)[C@@H](CC(=O)O)OC; X1 = CC(C)[C@@H](C(=O)*)N(C)CCS; X2 = CSCCN(C)[C@H](C(=O)*)C(C)C

Tests used:
Type in all cases: cell-based
JMT-1 = assay: In vitro cytotoxicity (CCK-8) in JMT-1 cells; conditions: Homo sapiens, JMT-1 cell line, 120 hours incubation
Procedure: (§1) Cytotoxic potencies of the compounds are assessed in flat-bottomed 96-well cell culture plates (Corning Costar) using cell counting Kit-8 (CCK-8) assay (Shanghai Life Lab Biotech Co., Ltd.). Briefly, human tumor cells (1,000-10,000 cells/well, depending on the cell line), in the appropriate culture medium are incubated, with the compounds, or with conjugates in the presence or absence of an excess of the corresponding unconjugated antibodies, for 120 hours, at 37° C., 5% CO2.
(§2) Dispensed 175 μL cell suspension in 96-well plate at 1500 cells per well and incubate for 24 hours in a humidified incubator (37° C., 5% CO2). Added 25 μL various concentrations of compound as a 5× solution into the cell culture medium (Fetal bovine serum, Invitrogen) in the plate and incubated for 120 hours in the incubator. Thawed CCK-8 on the bench top or in a 37° C. water bath, added 10 μL of CCK-8 to each well of the incubated plate (be careful not introducing air bubbles into the wells since they would interfere with the O. D. reading) and then further incubated for 1-4 hours in the incubator. Measured the absorbance at 450 nm using a SpectraMax i3x Microplate Reader and calculated the cell inhibition rate. The IC50 curves were generated along with the IC50 values by using GraphPad Prism software.

NCI-N87 = assay: In vitro cytotoxicity (CCK-8) in NCI-N87 cells; conditions: Homo sapiens, NCI-N87 cell line, 120 hours incubation
Procedure: as §1, §2

SK-BR-3 = assay: In vitro cytotoxicity (CCK-8) in SK-BR-3 cells; conditions: Homo sapiens, SK-BR-3 cell line, 120 hours incubation
Procedure: as §1, §2

NCI-H2110 = assay: In vitro cytotoxicity (CCK-8) in NCI-H2110 cells; conditions: Homo sapiens
Procedure: as §1, §2

SK-OV-3 = assay: In vitro cytotoxicity (CCK-8) in SK-OV-3 cells; conditions: Homo sapiens
Procedure: as §1, §2

HCC 827 = assay: In vitro cytotoxicity (CCK-8) in HCC 827 cells; conditions: Homo sapiens
Procedure: as §1, §2

OVCAR-3 = assay: In vitro cytotoxicity (CCK-8) in OVCAR-3 cells; conditions: Homo sapiens
Procedure: as §1, §2

BR 474 = assay: In vitro cytotoxicity (CCK-8) in BR 474 cells; conditions: Homo sapiens, BR 474 cell line, 120 hours incubation
Procedure: as §1, §2

[1] = NCI-H2110 cell line, 120 hours incubation, CCK-8, read-out: IC50
[2] = SK-OV-3 cell line, 120 hours incubation, CCK-8, read-out: IC50
[3] = HCC827, HCC 827 cell line, 120 hours incubation, CCK-8, read-out: IC50
[4] = OVCAR-3 cell line, 120 hours incubation, CCK-8, read-out: IC50

| SMILES | IC50 (JMT-1) [nM] | IC50 (NCI-N87) [nM] | IC50 (SK-BR-3) [nM] | IC50 (NCI-H2110; [1]) [nM] | IC50 (SK-OV-3; [2]) [nM] | IC50 (HCC 827; [3]) [nM] | IC50 (OVCAR-3; [4]) [nM] | IC50 (BR 474) [nM] | IC50 (NCI-H2110; NCI-H2110, 120 h) [nM] | IC50 (SK-OV-3; SK-OV-3, 120 h) [nM] | IC50 (HCC 827; HCC827, 120 h) [nM] | IC50 (OVCAR-3; OVCAR-3, 120 h) [nM] |
| --- | --- | --- | --- | --- | --- | --- | --- | --- | --- | --- | --- | --- |
| CC[C@H](C)[C@@H]([C@@H](CC(=O)N1CCC[C@H]1[C@H](OC)[C@@H](C)C(=O)N[C@H](C)[C@@H](O)c1ccccc1)OC)N(C)C(=O)[C@@H](NC(=O)[C@H](C(C)C)N(C)CCSC)C(C)C | 0.49 | 0.94 | 0.41 |  |  |  |  |  |  |  |  |  |
| CC[C@@]1(O)C(=O)OCc2c1cc1n(c2=O)Cc2cc3c(CCCCO)c(C)c(F)cc3nc2-1 | 14 | 2.6 | 0.014 | 0.85 | 0.36 | 0.78 | 0.1 | > 1000 |  |  |  |  |
| CC[C@H](C)[C@@H]([C@@H](CC(=O)N1CCC[C@H]1[C@H](OC)[C@@H](C)C(=O)N[C@H](C)[C@@H](O)c1ccccc1)OC)N(C)C(=O)[C@@H](NC(=O)[C@H](C(C)C)N(C)CCS)C(C)C | 2.1 | 4.8 | 1.7 | 10 | 7.7 |  |  | 5.1 |  |  |  |  |
| CC[C@H](C)[C@@H]([C@@H](CC(=O)N1CCC[C@H]1[C@H](OC)[C@@H](C)C(=O)N[C@H](C(=O)O)[C@@H](O)c1ccccc1)OC)N(C)C(=O)[C@@H](NC(=O)[C@H](C(C)C)N(C)CCS)C(C)C (X1-V[Dil][Dolaproine][Phe(βS-OH)]-OH) |  |  |  | 12 | 38 | 108 | 67.6 |  |  |  |  |  |
| CC[C@H](C)[C@@H]([C@@H](CC(=O)N1CCC[C@H]1[C@H](OC)[C@@H](C)C(=O)N[C@H](C(=O)O)[C@@H](O)c1ccccc1)OC)N(C)C(=O)[C@@H](NC(=O)[C@H](C(C)C)N(C)CCSC)C(C)C (X2-V[Dil][Dolaproine][Phe(βS-OH)]-OH) | 36.1 | 32.3 | 13.6 |  |  |  |  |  |  |  |  |  |
| CC[C@@]1(O)C(=O)OCc2c1cc1n(c2=O)Cc2c-1nc1cc(F)c(C)c3c1c2[C@@H](NC(=O)CO)CC3 |  |  |  |  |  |  |  |  | 4.1 | 3.6 | 1.8 | 0.2 |
